Experiment [1] concerns the target Protein farnesyltransferase (Bos taurus, UniProt P29702+P49355). The experiment is described as follows: Inhibition of the Farnesyltransferase catalyzed incorporation of [3H]FPP into recombinant Ha-Ras by 50% in bovine brain at a concentration of ca. 1 nM. The format is tissue-based.
Experiment [2] has as its target Geranylgeranyl transferase type I (Bos taurus, UniProt P29702+Q5EAD5). The experiment can be described thus: Inhibition of Geranylgeranyl transferase type I, an enzyme that recognizes CaaX sequences containing leucine as the terminal residue. The format is protein-complex assay.
For experiment [3], the system named is Rat1. The experiment is described as follows: 90% reduction in v-Ha-ras (Ras2B) transformed RAT1 cell colony size and number in soft agar assay. The format is functional. The settings on record: Rattus norvegicus.
The subject of experiment [4] is Rat1. The experiment can be described thus: 90% reduction in v-raf (Raf1a1) transformed RAT1 cell colony size and number in soft agar assay. The format is functional. The settings on record: Rattus norvegicus.

Each structure is given as a SMILES string.

On to `N[C@@H](CS)CNc1cccc(Oc2cccc(C(=O)O)c2)c1`, for which the IC50 in experiment [1] was found to be 0.25 µM; in experiment [2], 5.8 µM. In addition, the concentration for an effect of 90% (IC90) in experiment [3] and in experiment [4] was greater than 50 µM throughout.

On to `N[C@@H](CS)CNc1cccc(Oc2ccc(C(=O)O)cc2)c1`, for which the half-maximal inhibitory concentration (IC50) in experiment [1] turned out to be 3.8 µM.

In the case of `N[C@@H](CS)C(=O)Nc1cccc(Oc2ccc(C(=O)O)cc2)c1`, the half-maximal inhibitory concentration (IC50) in experiment [1] was greater than 100 µM.

As for `COC(=O)c1ccc(Oc2cccc(NC(=O)[C@@H](N)CS)c2)cc1`, the half-inhibitory concentration (IC50) in experiment [1] was greater than 100 µM.

Turning to `COC(=O)c1cccc(Oc2ccc(NC[C@@H](N)CS)cc2)c1`, the IC50 in experiment [1] stood at 0.65 µM; in experiment [2], 2.3 µM. For the same compound, the concentration for an effect of 90% (IC90) in experiment [3] and in experiment [4] was 10 µM each time.

For the compound `N[C@@H](CS)CNc1ccc(Oc2ccccc2)cc1`, the IC50 in experiment [1] is 0.46 µM; in experiment [2] it was 5 µM. The IC90 in experiment [3] and in experiment [4] was 10 µM throughout.

For the compound `N[C@@H](CS)CNc1ccc(Oc2cccc(CO)c2)cc1`, the IC50 in experiment [1] was 0.335 µM. Besides, the IC90 in experiment [3] is roughly 30 µM; in experiment [4], 30 µM.

On to `N[C@@H](CS)CNc1ccc(Oc2ccc(C(=O)O)cc2)cc1`, for which the IC50 in experiment [1] is 3.15 µM.

Regarding `Cc1cccc(Oc2cccc(NC[C@@H](N)CS)c2)c1`, the 50% inhibitory concentration (IC50) in experiment [1] came out at 0.33 µM.

In the case of `COC(=O)c1ccc(Oc2ccc(NC(=O)[C@@H](N)CS)cc2)cc1`, the 50% inhibitory concentration (IC50) in experiment [1] was greater than 100 µM.

With `COC(=O)c1cccc(Oc2cccc(NC(=O)[C@@H](N)CS)c2)c1`, in experiment [1], the IC50 was found to be 45 µM.

For the compound `Cc1cccc(Oc2ccc(NC[C@@H](N)CS)cc2)c1`, in experiment [1], the concentration for half-maximal inhibition (IC50) is 0.615 µM. Besides, the IC90 in experiment [3] and in experiment [4] was 10 µM throughout.

Regarding `N[C@@H](CS)CNc1cccc(Oc2ccccc2)c1`, the IC50 in experiment [1] amounted to 2.3 µM.

Consider `N[C@@H](CS)C(=O)Nc1cccc(Oc2cccc(C(=O)O)c2)c1`, for which, in experiment [1], the IC50 turned out to be 6.9 µM.

In the case of `COC(=O)c1cccc(Oc2ccc(NC(=O)[C@@H](N)CS)cc2)c1`, the half-maximal inhibitory concentration (IC50) in experiment [1] was 45 µM.

As to `N[C@@H](CS)C(=O)Nc1ccc(Oc2cccc(C(=O)O)c2)cc1`, in experiment [1], the IC50 is 16 µM.

Consider `N[C@@H](CS)CNc1ccc(Oc2cccc(C(=O)O)c2)cc1`, for which the half-maximal inhibitory concentration (IC50) in experiment [1] amounted to 0.403 µM. Moreover, the IC90 in experiment [3] and in experiment [4] was greater than 50 µM each time.

For `N[C@@H](CS)C(=O)Nc1ccc(Oc2ccc(C(=O)O)cc2)cc1`, the 50% inhibitory concentration (IC50) in experiment [1] worked out at 39 µM.

In general, IC50 refers to the concentration that gives 50% inhibition. As usually defined, the IC90 is the point of the concentration-response curve where the effect stands at 90%. Read a low IC90 as greater potency.

The values above are taken from ChEMBL document CHEMBL1130358, “DIARYLETHER INHIBITORS OF FARNESYL-PROTEIN TRANSFERASE” (Bioorg Med Chem Lett, 1997).
